Where two headings read alike, the source gives them in different places.

Series [1] in a line: biodistribution study in the mouse (Example 22). In kind it is in vivo, souris. The note with it: for Biodistribution Foie / Biodistribution Rein / Biodistribution Coeur / Biodistribution Poumon: souris swiss femelles, injection intraveineuse. The procedure: L'étude de la biodistribution des radioligands chez la souris, permet d'apprécier l'intensité relative de la fixation cardiaque de la molécule et son évolution dans le temps.
Après marquage à l'iode 123 et purification par CLHP 20µCi environ de produit sont mis en solution dans 5 ml d'une solution : éthanol 20%-sérum physiologique 80%. Après injection intraveineuse de 25 µl de cette solution dans la queue de souris vigiles (souris swiss femelles de 20 à 25 g), celles-ci (5 à chaque fois) sont sacrifiées à différents temps après l'injection. On mesure pour chaque souris les activités cardiaques, hépatique, rénale et pulmonaire. Les résultats sont exprimés en pourcentage de la dose injectée par gramme d'organe.
Le CGP12177 étant la référence, un lot de souris a été étudié après injection de CGP 12177 marqué au tritium.

The nature of series [2]: octanol-water partition coefficient at room temperature. The series is classed as physicochemical. Particulars: for COEFFICIENT DE PARTAGE OCTANOL-EAU: température ambiante.
Series [3] deals with récepteurs β adrénergiques. Kind of series: displacement of [^3H]CGP 12177 previously bound on newborn rat cardiomyocytes. Particulars: read-out: CI50 (the source's name). In kind it is binding, rats nouveau-nés. An excerpt: Dans cet exemple, on teste l'affinité du composé 6 marqué avec ^123I vis-à-vis des récepteurs β adrénergiques.
On étudie sur cardiomyocytes de rats nouveau-nés la capacité du composé 6 à déplacer le [^3H]CGP 12177 préalablement fixé sur les récepteurs.

The subject of series [4] is récepteurs β adrénergiques. As to the kind of experiment: isolated perfused rat heart (Langendorff), antagonism of isoprenaline on dP/dt max. The procedure: Dans cet exemple, on teste la propriété pharmacologique antagoniste du composé 6 vis-à-vis des récepteurs β adrénergiques.
L'expérience est conduite sur coeur de rat isolé et perfusé selon la technique de Langendorff.
Après une préperfusion de 25 minutes avec une solution de Krebs-Henseleit, le coeur est perfusé avec de l'isoprénaline à la concentration de 10^-8M pendant 10 minutes; puis avec une solution d'isoprénaline à 10^-8M associée à la molécule à tester à la concentration de 10^-6M.
Si la molécule à tester diminue la dP/dt max en présence d'isoprénaline, on pourra affirmer que cette molécule se comporte comme un antagoniste de l'isoprénaline vis-à-vis des récepteurs β adrénergiques.

A short description of series [5]: radioactivity in organs after injection in the mouse (Example 10). The series is classed as in vivo. Particulars: souris, 329.10^-12 mol. An excerpt: Dans cet exemple, on teste chez la souris les propriétés du [^123I] - composé 6 comme traceur radioactif pour l'examen du myocarde.
Après injection de 500.10^-12 mol de [^123I]-composé 6, les animaux sont sacrifiés et les organes d'intérêt récupérés et comptés. Le tableau 3 qui suit reporte les valeurs de la radioactivité trouvée dans les organes ou liquides biologiques exprimées en pourcentage de la dose injectée par gramme d'organe. TABLEAU 3 :
Dans le tableau 4 qui suit, on a donné à titre comparatif les résultats obtenus lorsqu'on injecte 329.10^-12 mol de [^3H]CGP 12177.

[6] abbreviates: [^3H]CGP 12177 5.10^-9M, 30 minutes d'incubation, cardiomyocytes de rats nouveau-nés.

As to `CC(C)NCC(O)COc1ccc(OCOCC=CI)cc1` (racemic) [composé 10, 1-[4-(5-iodo-2-oxapent-4-ényloxy)phénoxy]3-isopropylaminopropan-2-ol], the “Biodistribution Foie” value is recorded as 7,2 ± 1,1 pourcentage de la dose injectée par gramme d'organe in series [1] (2'); 10,2 ± 1,1 pourcentage de la dose injectée par gramme d'organe in series [1] (5'); 6,3 ± 3,3 pourcentage de la dose injectée par gramme d'organe in series [1] (10'); 1,7 ± 0,8 pourcentage de la dose injectée par gramme d'organe in series [1] (15"); 9 ± 0,2 pourcentage de la dose injectée par gramme d'organe in series [1] (15'); 7,2 ± 0,8 pourcentage de la dose injectée par gramme d'organe in series [1] (30'). Further, the “Biodistribution Rein” value in series [1] (2') is 14,8 ± 1 pourcentage de la dose injectée par gramme d'organe; in series [1] (5'), 14 ± 1,1 pourcentage de la dose injectée par gramme d'organe; in series [1] (10'), 10,7 ± 1,1 pourcentage de la dose injectée par gramme d'organe; in series [1] (15"), 11,4 ± 5,1 pourcentage de la dose injectée par gramme d'organe; in series [1] (15') it was 9,1 ± 0,4 pourcentage de la dose injectée par gramme d'organe; in series [1] (30'), 7,6 ± 0,2 pourcentage de la dose injectée par gramme d'organe. Also, the “Biodistribution Coeur” value in series [1] (15") is recorded as 28,4 ± 3,6 pourcentage de la dose injectée par gramme d'organe; in series [1] (15'), 3,9 ± 0,2 pourcentage de la dose injectée par gramme d'organe; in series [1] (30'), 3,1 ± 0,15 pourcentage de la dose injectée par gramme d'organe; in series [1] (2 min.) it was 15 ± 1,5 pourcentage de la dose injectée par gramme d'organe; in series [1] (5 min.), 9,5 ± 2,3 pourcentage de la dose injectée par gramme d'organe; in series [1] (10 min.), 5,3 ± 0,15 pourcentage de la dose injectée par gramme d'organe. The “Biodistribution Poumon” value in series [1] (15") is on record as 144,52 pourcentage de la dose injectée par gramme d'organe; in series [1] (15'), 2,3 ± 7 pourcentage de la dose injectée par gramme d'organe; in series [1] (30'), 22 ± 4 pourcentage de la dose injectée par gramme d'organe; in series [1] (2 min.), 60 ± 10 pourcentage de la dose injectée par gramme d'organe; in series [1] (5 min.), 58 ± 4 pourcentage de la dose injectée par gramme d'organe; in series [1] (10 min.) it was 33 ± 14 pourcentage de la dose injectée par gramme d'organe. Also, in series [2] (pH 7), the “Coefficient de partage octanol-eau à pH 7” value was 13,2.
On to `CC(C)NCC(O)COc1ccc(CC(N)=O)cc1` (centres unmarked) [atenolol, reference compound], for which the IC50 in series [3] (setting [6]) stood at 19000 nM.
With `CC(C)NCC(O)COc1ccc(NC(=O)CCC=CI)cc1` (centres unmarked) [composé 6, 1-[4-(4-iodobut-3-énamido)phénoxy]-3-N-isopropyl aminopropan-2-ol], in series [4] (Isoprénaline + molécule (10^e+8 min), isoprénaline 10^-8M, test molecule 10^-6M, n=6), the DP/dt max was determined as 973±240 mmHg/min. For the same compound, the “pourcentage d'inhibition vis-à-vis de l'isoprénaline” value in series [4] (effet antagoniste, summary) is recorded as 116%. Also, the “effect on the action of isoprénaline on dP/dt max” value in series [4] (isoprénaline 10^-8M + molecule 10^-6M) was “antagonise complètement l'action de l'isoprénaline”. For the same compound, the IC50 in series [3] (setting [6]) is 2000 nM; in series [3] (summary, unit inferred), 2040 nM.
On to “(2S)-4 (3-t-butylamino-2-hydroxypropoxy)-benzimidazol-2-one [[^3H]-CGP 12177, reference compound]”, for which the “Biodistribution Coeur” value in series [1] (1 min.) is on record as 9 ± 1,4 pourcentage de la dose injectée par gramme d'organe; in series [1] (2 min.), 7,2 ± 0,9 pourcentage de la dose injectée par gramme d'organe; in series [1] (5 min.) it was 7,0 ± 1 pourcentage de la dose injectée par gramme d'organe; in series [1] (10 min.), 6,7 ± 1,3 pourcentage de la dose injectée par gramme d'organe. Moreover, the “Biodistribution Poumon” value is on record as 66,3 ± 9,2 pourcentage de la dose injectée par gramme d'organe in series [1] (1 min.), 44,3 ± 8,6 pourcentage de la dose injectée par gramme d'organe in series [1] (2 min.), 37,9 ± 9,3 pourcentage de la dose injectée par gramme d'organe in series [1] (5 min.) and 42 ± 8,5 pourcentage de la dose injectée par gramme d'organe in series [1] (10 min.). Moreover, the “activité dans le myocarde (plateau)” value in series [1] (souris, plateau dès la 2ème minute après l'injection) is reported as ~7 % de la dose injectée par gramme d'organe. In addition, the “radioactivité COEUR” value in series [5] (1 min) is given as 6,8±4 pourcentage de la dose injectée par gramme d'organe; in series [5] (2 min) it was 6,3±0,3 pourcentage de la dose injectée par gramme d'organe; in series [5] (5 min) it was 5,9±0,8 pourcentage de la dose injectée par gramme d'organe; in series [5] (10 min) it was 5,3±0,2 pourcentage de la dose injectée par gramme d'organe. For the same compound, the “radioactivité POUMON” value is on record as 26,3±2,1 pourcentage de la dose injectée par gramme d'organe in series [5] (1 min), 31,6±6,8 pourcentage de la dose injectée par gramme d'organe in series [5] (2 min), 29,7±5,8 pourcentage de la dose injectée par gramme d'organe in series [5] (5 min) and 29±5,1 pourcentage de la dose injectée par gramme d'organe in series [5] (10 min). For the same compound, the entries for the “COEFFICIENT DE PARTAGE OCTANOL-EAU” value in series [2] (pH=4,2) and in series [2] (pH=7,4) were 0,0088 and 0,18, respectively.
